{
  "source": "ChEMBL document CHEMBL2346598",
  "about": "“Synthesis and pharmacological characterization of 2-(acylamino)thiophene derivatives as metabolically stable, orally effective, positive allosteric modulators of the GABAB receptor” (J Med Chem, 2013)",
  "key": {"Mus musculus [1]": {"test_system": "Mus musculus", "assay": "Hypnotic effect in DBA mouse assessed as increase in baclofen-induced duration of loss of righting reflex at 300 mg/kg, ig incubated for 30 mins prior to baclofen-challenge relative to vehicle-treated control", "format": "functional, organism-based", "design": "dose 300 mg/kg"}, "Mus musculus [2]": {"test_system": "Mus musculus", "assay": "Hypnotic effect in DBA mouse assessed as increase in baclofen-induced duration of loss of righting reflex at 100 to 300 mg/kg, ip incubated for 30 mins prior to baclofen-challenge relative to vehicle-treated control", "format": "functional, organism-based"}, "Mus musculus [3]": {"test_system": "Mus musculus", "assay": "Hypnotic effect in DBA mouse assessed as potentiation of baclofen-induced loss of righting reflex at 300 mg/kg, ip incubated for 30 mins prior to baclofen-challenge", "format": "functional, organism-based", "design": "dose 300 mg/kg"}, "Mus musculus [4]": {"test_system": "Mus musculus", "assay": "Hypnotic effect in DBA mouse assessed as potentiation of baclofen-induced loss of righting reflex at 100 mg/kg, ip incubated for 30 mins prior to baclofen-challenge", "format": "functional, organism-based", "design": "dose 100 mg/kg"}, "Mus musculus [5]": {"test_system": "Mus musculus", "assay": "Hypnotic effect in ip dosed DBA mouse assessed as increase in baclofen-induced duration of loss of righting reflex incubated for 30 mins prior to baclofen-challenge", "format": "functional, organism-based"}, "Mus musculus [6]": {"test_system": "Mus musculus", "assay": "Hypnotic effect in DBA mouse assessed as reduction in baclofen-induced onset of loss of righting reflex at 100 to 300 mg/kg, ip incubated for 30 mins prior to baclofen-challenge relative to vehicle-treated control", "format": "functional, organism-based"}, "Mus musculus [7]": {"test_system": "Mus musculus", "assay": "Hypnotic effect in ip dosed DBA mouse assessed as reduction in baclofen-induced onset of loss of righting reflex incubated 30 mins prior to baclofen-challenge", "format": "functional, organism-based"}, "Mus musculus [8]": {"test_system": "Mus musculus", "assay": "Hypnotic effect in DBA mouse assessed as potentiation of baclofen-induced loss of righting reflex at 30 mg/kg, ip incubated for 30 mins prior to baclofen-challenge", "format": "functional, organism-based", "design": "dose 30 mg/kg"}, "Mus musculus [9]": {"test_system": "Mus musculus", "assay": "Hypnotic effect in DBA mouse assessed as potentiation of baclofen-induced loss of righting reflex at 10 mg/kg, ip incubated for 30 mins prior to baclofen-challenge", "format": "functional, organism-based", "design": "dose 10 mg/kg"}, "Mus musculus [10]": {"test_system": "Mus musculus", "assay": "Hypnotic effect in DBA mouse assessed as potentiation of baclofen-induced loss of righting reflex at 3 mg/kg, ip incubated for 30 mins prior to baclofen-challenge", "format": "functional, organism-based", "design": "dose 3 mg/kg"}, "Mus musculus [11]": {"test_system": "Mus musculus", "assay": "Hypnotic effect in DBA mouse assessed as potentiation of baclofen-induced loss of righting reflex at 1 mg/kg, ip incubated for 30 mins prior to baclofen-challenge", "format": "functional, organism-based", "design": "dose 1 mg/kg"}, "Plasma": {"test_system": "Plasma", "assay": "Metabolic stability in mouse plasma at 5 uM after 30 mins by HPLC-MS analysis", "format": "ADME, cell-free", "conditions": "0.5 h"}, "[12]": {"assay": "Drug metabolism in mouse liver microsomes at 5 uM after 60 mins by LC/MS/MS analysis", "format": "ADME, Microsome", "conditions": "read-out: Drug metabolism"}, "[13]": {"assay": "Intrinsic clearance in mouse liver microsomes assessed per mg protein at 5 uM after 60 mins by LC/MS/MS analysis", "format": "ADME, Microsome", "conditions": "read-out: CLH"}, "[14]": {"assay": "Elimination rate constant in mouse liver microsomes at 5 uM after 60 mins by LC/MS/MS analysis", "format": "ADME, Microsome"}, "NIH3T3": {"test_system": "NIH3T3", "assay": "Cytotoxicity against mouse NIH/3T3 cells after 24 hrs by neutral red staining-based UV/visible spectrophotometric analysis", "format": "cell-based", "conditions": "NIH3T3, 24 h"}, "Rattus norvegicus [15]": {"organism": "Rattus norvegicus", "assay": "Positive allosteric modulation of GABAB receptor in rat cortical membranes assessed as potentiation of GABA-induced [35S]GTPgammaS binding after 30 mins by liquid scintillation counting analysis", "format": "functional, cell membranes", "conditions": "Membrane"}, "Rattus norvegicus [16]": {"organism": "Rattus norvegicus", "assay": "Positive allosteric modulation of GABAB receptor in rat cortical membranes assessed as stimulation of [35S]GTPgammaS binding up to 100 uM after 30 mins by liquid scintillation counting analysis", "format": "functional, cell membranes", "conditions": "Membrane"}, "Rattus norvegicus [17]": {"organism": "Rattus norvegicus", "assay": "Positive allosteric modulation of GABAB receptor in rat cortical membranes assessed as potentiation of GABA-induced [35S]GTPgammaS binding at 25 uM after 30 mins by liquid scintillation counting analysis relative to GABA", "format": "functional, cell membranes", "conditions": "Membrane"}, "Rattus norvegicus [18]": {"organism": "Rattus norvegicus", "assay": "Positive allosteric modulation of GABAB receptor in rat cortical membranes assessed as potentiation of GABA-induced [35S]GTPgammaS binding at 2.5 uM after 30 mins by liquid scintillation counting analysis relative to GABA", "format": "functional, cell membranes", "conditions": "Membrane"}, "Mus musculus [19]": {"test_system": "Mus musculus", "assay": "Hypnotic effect in DBA mouse assessed as potentiation of baclofen-induced loss of righting reflex at 300 mg/kg, ig incubated for 30 mins prior to baclofen-challenge", "format": "functional, organism-based", "design": "dose 300 mg/kg"}, "Mus musculus [20]": {"test_system": "Mus musculus", "assay": "Hypnotic effect in DBA mouse assessed as increase in pentobarbital-induced duration of loss of righting reflex at 300 mg/kg, ip incubated for 30 mins prior to pentobarbital-challenge", "format": "functional", "conditions": "route intraperitoneal"}, "Mus musculus [21]": {"test_system": "Mus musculus", "assay": "Hypnotic effect in DBA mouse assessed as increase in pentobarbital-induced duration of loss of righting reflex at 100 mg/kg, ip incubated for 30 mins prior to pentobarbital-challenge", "format": "functional", "conditions": "route intraperitoneal"}, "Mus musculus [22]": {"test_system": "Mus musculus", "assay": "Hypnotic effect in DBA mouse assessed as increase in pentobarbital-induced duration of loss of righting reflex at 30 mg/kg, ip incubated for 30 mins prior to pentobarbital-challenge", "format": "functional", "conditions": "route intraperitoneal"}, "Mus musculus [23]": {"test_system": "Mus musculus", "assay": "Hypnotic effect in DBA mouse assessed as reduction in pentobarbital-induced onset of loss of righting reflex at 300 mg/kg, ip incubated for 30 mins prior to pentobarbital-challenge (reference value: 60.0 +/- 0.0 min)", "format": "functional", "conditions": "route intraperitoneal"}, "Mus musculus [24]": {"test_system": "Mus musculus", "assay": "Hypnotic effect in DBA mouse assessed as reduction in pentobarbital-induced onset of loss of righting reflex at 100 mg/kg, ip incubated for 30 mins prior to pentobarbital-challenge (reference value: 60.0 +/- 0.0 min)", "format": "functional", "conditions": "route intraperitoneal"}, "Mus musculus [25]": {"test_system": "Mus musculus", "assay": "Hypnotic effect in DBA mouse assessed as reduction in pentobarbital-induced onset of loss of righting reflex at 30 mg/kg, ip incubated for 30 mins prior to pentobarbital-challenge (reference value: 60.0 +/- 0.0 min)", "format": "functional", "conditions": "route intraperitoneal"}, "Mus musculus [26]": {"test_system": "Mus musculus", "assay": "Hypnotic effect in DBA mouse assessed as potentiation of pentobarbital-induced loss of righting reflex at 300 mg/kg, ip incubated for 30 mins prior to pentobarbital-challenge", "format": "functional, organism-based", "design": "dose 300 mg/kg"}, "Mus musculus [27]": {"test_system": "Mus musculus", "assay": "Hypnotic effect in DBA mouse assessed as potentiation of pentobarbital-induced loss of righting reflex at 100 mg/kg, ip incubated for 30 mins prior to pentobarbital-challenge", "format": "functional, organism-based", "design": "dose 100 mg/kg"}, "Mus musculus [28]": {"test_system": "Mus musculus", "assay": "Hypnotic effect in DBA mouse assessed as potentiation of pentobarbital-induced loss of righting reflex at 30 mg/kg, ip incubated for 30 mins prior to pentobarbital-challenge", "format": "functional, organism-based", "design": "dose 30 mg/kg"}, "Mus musculus [29]": {"test_system": "Mus musculus", "assay": "Hypnotic effect in DBA mouse assessed as reduction in baclofen-induced onset of loss of righting reflex at 300 mg/kg, ig incubated for 30 mins prior to baclofen-challenge relative to vehicle-treated control", "format": "functional, organism-based", "design": "dose 300 mg/kg"}},
  "note": "The source made the active and inactive calls. The calls are words filed in the database; no cut-off is given here.",
  "data": [
    {"compound": "CCc1c(C)sc(NC(=O)c2ccc(C)cc2)c1C(=O)OC", "values": [
      {"measurement": "Activity", "setting": "Mus musculus [1]", "result": "Active"},
      {"measurement": "Activity", "setting": "Mus musculus [2]", "result": "Active"},
      {"measurement": "Activity", "setting": "Mus musculus [3]", "result": "Active"},
      {"measurement": "Activity", "setting": "Mus musculus [4]", "result": "Active"},
      {"measurement": "Activity", "setting": "Mus musculus [5]", "result": "Dose-dependent effect"},
      {"measurement": "Activity", "setting": "Mus musculus [6]", "result": "Active"},
      {"measurement": "Activity", "setting": "Mus musculus [7]", "result": "Dose-dependent effect"},
      {"measurement": "Activity", "setting": "Mus musculus [8]", "result": "Active"},
      {"measurement": "Activity", "setting": "Mus musculus [9]", "result": "Active"},
      {"measurement": "Activity", "setting": "Mus musculus [10]", "result": "Active"},
      {"measurement": "Activity", "setting": "Mus musculus [11]", "result": "inactive"},
      {"measurement": "Stability", "setting": "Plasma", "result": "Unstable"},
      {"measurement": "metabolised at 1 h, 5 µM", "setting": "[12]", "result": 28, "unit": "%"},
      {"measurement": "microsomal CLint at 5 µM", "setting": "[13]", "result": 7.73, "unit": "µL/min/mg"},
      {"measurement": "k el at 1 h, 5 µM", "setting": "[14]", "result": 0.000124, "unit": "s⁻¹"},
      {"measurement": "IC50", "setting": "NIH3T3", "result": 95, "unit": "µM"},
      {"measurement": "Activity", "setting": "Rattus norvegicus [15]", "result": "inactive"},
      {"measurement": "Activity", "setting": "Rattus norvegicus [16]", "result": "inactive"},
      {"measurement": "Activity", "setting": "Rattus norvegicus [17]", "result": 18.2, "unit": "%"},
      {"measurement": "Activity", "setting": "Rattus norvegicus [18]", "result": 3.7, "unit": "%"},
      {"measurement": "Activity", "setting": "Mus musculus [19]", "result": "Active"},
      {"measurement": "Time", "setting": "Mus musculus [20]", "result": 14, "unit": "min"},
      {"measurement": "Time", "setting": "Mus musculus [21]", "result": 11.2, "unit": "min"},
      {"measurement": "Time", "setting": "Mus musculus [22]", "result": 4.7, "unit": "min"},
      {"measurement": "Time", "setting": "Mus musculus [23]", "result": 26.7, "unit": "min"},
      {"measurement": "Time", "setting": "Mus musculus [24]", "result": 43.8, "unit": "min"},
      {"measurement": "Time", "setting": "Mus musculus [25]", "result": 53.3, "unit": "min"},
      {"measurement": "Activity", "setting": "Mus musculus [26]", "result": "Active"},
      {"measurement": "Activity", "setting": "Mus musculus [27]", "result": "inactive"},
      {"measurement": "Activity", "setting": "Mus musculus [28]", "result": "inactive"},
      {"measurement": "Activity", "setting": "Mus musculus [29]", "result": "Active"}
    ]}
  ]
}
